Test in all cases: HTS ATP-utilizing enzyme assay, off-chip mobility-shift (Caliper HTS 250)
Format in all cases: biochemical
Holding throughout (conditions): test compound 10 μM, kinase listed = active (greater than six-sigma from the mean activity of inactive compounds)

One test deals with AKT1 (Homo sapiens, UniProt P31749). In a few lines: (§1)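 The ratio of peptide substrate to phosphorylated product, measured by microfluidic mobility shift, gave percent inhibition. Reactions contained enzyme, peptide substrate and compound at 10 μM in HEPES pH 7.5 buffer, ran 2.5 hrs at 20° C. to 22° C., and were quenched with EDTA.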
The next test has as its target T1, NEK2 (Homo sapiens, UniProt P51955).
T1 sequence (P51955 1-445): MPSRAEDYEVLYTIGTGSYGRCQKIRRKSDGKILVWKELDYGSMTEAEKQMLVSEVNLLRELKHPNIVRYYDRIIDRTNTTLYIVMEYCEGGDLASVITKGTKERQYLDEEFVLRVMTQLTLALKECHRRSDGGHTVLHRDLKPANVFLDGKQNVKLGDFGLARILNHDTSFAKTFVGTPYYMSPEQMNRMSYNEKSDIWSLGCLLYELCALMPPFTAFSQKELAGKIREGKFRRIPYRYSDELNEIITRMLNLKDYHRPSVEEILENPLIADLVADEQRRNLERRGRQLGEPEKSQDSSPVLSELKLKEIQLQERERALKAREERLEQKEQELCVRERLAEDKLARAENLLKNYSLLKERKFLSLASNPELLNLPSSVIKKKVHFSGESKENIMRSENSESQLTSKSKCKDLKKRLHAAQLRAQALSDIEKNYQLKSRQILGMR
In a few lines:
as §1

The target of the next test is T2, PRAK (Homo sapiens, UniProt Q8IW41).
T2 sequence (Q8IW41 1-473): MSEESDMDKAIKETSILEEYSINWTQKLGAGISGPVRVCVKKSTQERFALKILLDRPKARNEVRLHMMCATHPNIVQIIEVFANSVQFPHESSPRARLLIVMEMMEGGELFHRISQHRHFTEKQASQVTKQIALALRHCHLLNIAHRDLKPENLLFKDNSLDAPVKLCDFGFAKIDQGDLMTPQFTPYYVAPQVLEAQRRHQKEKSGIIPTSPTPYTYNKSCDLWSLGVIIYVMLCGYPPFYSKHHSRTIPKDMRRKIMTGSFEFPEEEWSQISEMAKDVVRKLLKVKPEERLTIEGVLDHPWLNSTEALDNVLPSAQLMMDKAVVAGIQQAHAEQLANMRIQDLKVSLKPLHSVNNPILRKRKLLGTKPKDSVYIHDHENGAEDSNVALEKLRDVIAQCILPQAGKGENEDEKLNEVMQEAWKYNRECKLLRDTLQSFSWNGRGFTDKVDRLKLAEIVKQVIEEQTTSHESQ
The essentials:
as §1

The next test has as its target AKT3 (Homo sapiens, UniProt Q9Y243). In a few lines: as §1
A further test concerns the target MAPKAPK2 (Homo sapiens, UniProt P49137). The essentials: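 Single-point screen of test compound at 10 μM against MAPKAPK2 with peptide substrate in HEPES pH 7.5 buffer (Triton X-100, BSA), 2.5 h at 20-22 °C. Substrate-to-phosphopeptide ratio was read by off-chip microfluidic mobility shift; EDTA and DMSO wells defined 100% and 0% controls, hits by six-sigma limits.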

The next test addresses ROCK2 (Homo sapiens, UniProt O75116). The essentials:
as §1

A further test has as its target T3, DYRK2 (Homo sapiens, UniProt Q92630).
T3 sequence (Q92630 1-601): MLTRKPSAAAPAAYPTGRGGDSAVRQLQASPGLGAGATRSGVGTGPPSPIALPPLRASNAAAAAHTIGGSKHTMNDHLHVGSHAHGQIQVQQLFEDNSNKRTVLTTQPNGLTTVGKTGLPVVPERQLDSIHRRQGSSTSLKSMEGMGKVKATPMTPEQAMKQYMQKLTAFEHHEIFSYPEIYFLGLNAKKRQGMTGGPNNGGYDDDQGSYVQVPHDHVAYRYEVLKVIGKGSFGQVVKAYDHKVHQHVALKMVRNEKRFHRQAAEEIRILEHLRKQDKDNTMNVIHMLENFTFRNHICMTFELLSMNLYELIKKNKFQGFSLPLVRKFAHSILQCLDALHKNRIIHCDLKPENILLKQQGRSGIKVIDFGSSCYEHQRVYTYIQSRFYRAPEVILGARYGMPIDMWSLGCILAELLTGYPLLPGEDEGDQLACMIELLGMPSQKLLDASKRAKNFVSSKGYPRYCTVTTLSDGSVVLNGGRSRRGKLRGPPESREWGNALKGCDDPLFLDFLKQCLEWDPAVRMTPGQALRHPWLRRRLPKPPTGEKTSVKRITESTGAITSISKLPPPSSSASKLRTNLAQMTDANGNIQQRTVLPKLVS
In a few lines: as §1

The target in a further test is C-TAK1 (Homo sapiens, UniProt P27448). The essentials:
as §1

Another test concerns the target MSK1 (Homo sapiens, UniProt O75582). The essentials:
as §1

Another test deals with GSK-3-β (Homo sapiens, UniProt P49841). The essentials:
as §1

Another test addresses GSK3-α (Homo sapiens, UniProt P49840). The essentials:
as §1

Structures are written as SMILES.

Sequence of MAPKAPK2 (P49137 whole entry): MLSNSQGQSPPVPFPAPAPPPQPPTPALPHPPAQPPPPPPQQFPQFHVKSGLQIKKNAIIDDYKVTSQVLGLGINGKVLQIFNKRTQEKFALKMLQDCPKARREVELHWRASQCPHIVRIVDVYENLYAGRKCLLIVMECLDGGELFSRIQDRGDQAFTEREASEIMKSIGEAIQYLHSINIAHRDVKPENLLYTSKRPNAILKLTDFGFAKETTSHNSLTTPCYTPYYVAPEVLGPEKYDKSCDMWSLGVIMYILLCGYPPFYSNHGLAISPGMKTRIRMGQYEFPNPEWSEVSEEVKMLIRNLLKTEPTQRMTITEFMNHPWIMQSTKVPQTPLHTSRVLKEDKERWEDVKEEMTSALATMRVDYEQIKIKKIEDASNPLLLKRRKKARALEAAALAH
Sequence of GSK3-α (P49840 whole entry): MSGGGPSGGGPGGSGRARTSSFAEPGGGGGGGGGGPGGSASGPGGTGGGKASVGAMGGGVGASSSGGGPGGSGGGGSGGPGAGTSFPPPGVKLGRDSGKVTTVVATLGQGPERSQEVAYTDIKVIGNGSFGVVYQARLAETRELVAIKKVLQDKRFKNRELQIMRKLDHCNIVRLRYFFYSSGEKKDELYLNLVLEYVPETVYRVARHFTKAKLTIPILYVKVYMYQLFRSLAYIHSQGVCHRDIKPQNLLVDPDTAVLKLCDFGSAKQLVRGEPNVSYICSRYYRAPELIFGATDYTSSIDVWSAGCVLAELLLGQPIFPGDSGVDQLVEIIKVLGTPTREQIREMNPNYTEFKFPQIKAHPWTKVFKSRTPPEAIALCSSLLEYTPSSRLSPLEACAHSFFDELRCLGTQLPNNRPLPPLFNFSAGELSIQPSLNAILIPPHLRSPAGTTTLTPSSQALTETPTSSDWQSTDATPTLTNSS
Sequence of GSK-3-β (P49841 whole entry): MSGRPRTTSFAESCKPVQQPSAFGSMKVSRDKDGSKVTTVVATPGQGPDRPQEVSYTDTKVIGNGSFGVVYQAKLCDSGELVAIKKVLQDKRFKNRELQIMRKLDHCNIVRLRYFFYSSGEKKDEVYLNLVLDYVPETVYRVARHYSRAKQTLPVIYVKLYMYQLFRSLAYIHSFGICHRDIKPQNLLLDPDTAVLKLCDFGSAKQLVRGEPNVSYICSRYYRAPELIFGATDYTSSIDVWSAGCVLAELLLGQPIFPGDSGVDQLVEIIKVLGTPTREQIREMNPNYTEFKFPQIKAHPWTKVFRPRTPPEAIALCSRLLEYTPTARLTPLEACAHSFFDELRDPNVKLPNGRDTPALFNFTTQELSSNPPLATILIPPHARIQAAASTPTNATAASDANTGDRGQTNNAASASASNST
Sequence of C-TAK1 (P27448 whole entry): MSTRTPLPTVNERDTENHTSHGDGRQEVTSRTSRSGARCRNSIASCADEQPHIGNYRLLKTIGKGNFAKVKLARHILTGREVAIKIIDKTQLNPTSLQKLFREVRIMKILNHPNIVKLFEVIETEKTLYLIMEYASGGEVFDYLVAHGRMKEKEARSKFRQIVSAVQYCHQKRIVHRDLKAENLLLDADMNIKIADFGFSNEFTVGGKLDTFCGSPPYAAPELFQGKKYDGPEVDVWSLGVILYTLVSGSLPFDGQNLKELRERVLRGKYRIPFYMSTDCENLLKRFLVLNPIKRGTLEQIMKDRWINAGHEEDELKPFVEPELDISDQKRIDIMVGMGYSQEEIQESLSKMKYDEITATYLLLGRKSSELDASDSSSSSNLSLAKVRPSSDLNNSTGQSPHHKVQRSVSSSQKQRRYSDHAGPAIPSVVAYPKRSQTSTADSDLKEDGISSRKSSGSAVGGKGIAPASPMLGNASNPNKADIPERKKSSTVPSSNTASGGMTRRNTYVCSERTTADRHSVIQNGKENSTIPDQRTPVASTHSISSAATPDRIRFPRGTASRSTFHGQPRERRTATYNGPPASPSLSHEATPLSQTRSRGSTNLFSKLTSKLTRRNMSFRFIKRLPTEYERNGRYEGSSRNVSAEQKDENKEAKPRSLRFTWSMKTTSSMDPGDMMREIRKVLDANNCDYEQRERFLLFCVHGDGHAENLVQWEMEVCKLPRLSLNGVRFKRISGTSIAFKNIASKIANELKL
Sequence of AKT3 (Q9Y243 whole entry): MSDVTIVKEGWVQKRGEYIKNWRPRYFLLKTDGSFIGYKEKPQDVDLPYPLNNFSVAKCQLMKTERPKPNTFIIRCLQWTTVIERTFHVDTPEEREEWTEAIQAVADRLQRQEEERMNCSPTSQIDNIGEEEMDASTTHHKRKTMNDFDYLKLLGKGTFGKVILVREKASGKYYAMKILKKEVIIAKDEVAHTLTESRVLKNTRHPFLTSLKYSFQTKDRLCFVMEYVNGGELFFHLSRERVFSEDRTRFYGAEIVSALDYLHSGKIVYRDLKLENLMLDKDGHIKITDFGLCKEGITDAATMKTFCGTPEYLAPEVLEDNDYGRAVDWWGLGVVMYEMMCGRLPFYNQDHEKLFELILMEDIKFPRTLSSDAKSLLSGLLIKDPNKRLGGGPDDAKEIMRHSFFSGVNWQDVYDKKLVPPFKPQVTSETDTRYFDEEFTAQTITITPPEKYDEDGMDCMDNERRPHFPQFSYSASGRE
Sequence of MSK1 (O75582 whole entry): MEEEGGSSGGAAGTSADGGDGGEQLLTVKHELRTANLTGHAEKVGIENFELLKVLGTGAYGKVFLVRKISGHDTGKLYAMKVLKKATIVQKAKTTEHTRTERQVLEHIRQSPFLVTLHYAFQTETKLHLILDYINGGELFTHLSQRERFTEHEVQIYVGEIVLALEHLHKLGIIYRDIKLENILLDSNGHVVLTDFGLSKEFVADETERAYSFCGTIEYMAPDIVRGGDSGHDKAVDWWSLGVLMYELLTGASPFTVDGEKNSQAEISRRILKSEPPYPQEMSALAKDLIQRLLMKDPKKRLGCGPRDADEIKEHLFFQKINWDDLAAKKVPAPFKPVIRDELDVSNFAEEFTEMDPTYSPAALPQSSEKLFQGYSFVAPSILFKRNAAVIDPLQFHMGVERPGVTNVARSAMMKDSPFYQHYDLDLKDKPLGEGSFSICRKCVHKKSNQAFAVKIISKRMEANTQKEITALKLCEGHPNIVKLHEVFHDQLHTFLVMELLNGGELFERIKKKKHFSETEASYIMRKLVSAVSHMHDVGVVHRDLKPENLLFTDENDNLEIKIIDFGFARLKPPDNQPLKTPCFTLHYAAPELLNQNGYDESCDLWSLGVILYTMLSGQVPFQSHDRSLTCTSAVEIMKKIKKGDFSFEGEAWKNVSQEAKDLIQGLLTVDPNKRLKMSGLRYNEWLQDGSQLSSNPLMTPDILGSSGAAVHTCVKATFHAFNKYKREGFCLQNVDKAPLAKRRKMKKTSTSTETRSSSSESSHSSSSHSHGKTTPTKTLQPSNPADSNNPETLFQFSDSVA
Sequence of ROCK2 (O75116 whole entry): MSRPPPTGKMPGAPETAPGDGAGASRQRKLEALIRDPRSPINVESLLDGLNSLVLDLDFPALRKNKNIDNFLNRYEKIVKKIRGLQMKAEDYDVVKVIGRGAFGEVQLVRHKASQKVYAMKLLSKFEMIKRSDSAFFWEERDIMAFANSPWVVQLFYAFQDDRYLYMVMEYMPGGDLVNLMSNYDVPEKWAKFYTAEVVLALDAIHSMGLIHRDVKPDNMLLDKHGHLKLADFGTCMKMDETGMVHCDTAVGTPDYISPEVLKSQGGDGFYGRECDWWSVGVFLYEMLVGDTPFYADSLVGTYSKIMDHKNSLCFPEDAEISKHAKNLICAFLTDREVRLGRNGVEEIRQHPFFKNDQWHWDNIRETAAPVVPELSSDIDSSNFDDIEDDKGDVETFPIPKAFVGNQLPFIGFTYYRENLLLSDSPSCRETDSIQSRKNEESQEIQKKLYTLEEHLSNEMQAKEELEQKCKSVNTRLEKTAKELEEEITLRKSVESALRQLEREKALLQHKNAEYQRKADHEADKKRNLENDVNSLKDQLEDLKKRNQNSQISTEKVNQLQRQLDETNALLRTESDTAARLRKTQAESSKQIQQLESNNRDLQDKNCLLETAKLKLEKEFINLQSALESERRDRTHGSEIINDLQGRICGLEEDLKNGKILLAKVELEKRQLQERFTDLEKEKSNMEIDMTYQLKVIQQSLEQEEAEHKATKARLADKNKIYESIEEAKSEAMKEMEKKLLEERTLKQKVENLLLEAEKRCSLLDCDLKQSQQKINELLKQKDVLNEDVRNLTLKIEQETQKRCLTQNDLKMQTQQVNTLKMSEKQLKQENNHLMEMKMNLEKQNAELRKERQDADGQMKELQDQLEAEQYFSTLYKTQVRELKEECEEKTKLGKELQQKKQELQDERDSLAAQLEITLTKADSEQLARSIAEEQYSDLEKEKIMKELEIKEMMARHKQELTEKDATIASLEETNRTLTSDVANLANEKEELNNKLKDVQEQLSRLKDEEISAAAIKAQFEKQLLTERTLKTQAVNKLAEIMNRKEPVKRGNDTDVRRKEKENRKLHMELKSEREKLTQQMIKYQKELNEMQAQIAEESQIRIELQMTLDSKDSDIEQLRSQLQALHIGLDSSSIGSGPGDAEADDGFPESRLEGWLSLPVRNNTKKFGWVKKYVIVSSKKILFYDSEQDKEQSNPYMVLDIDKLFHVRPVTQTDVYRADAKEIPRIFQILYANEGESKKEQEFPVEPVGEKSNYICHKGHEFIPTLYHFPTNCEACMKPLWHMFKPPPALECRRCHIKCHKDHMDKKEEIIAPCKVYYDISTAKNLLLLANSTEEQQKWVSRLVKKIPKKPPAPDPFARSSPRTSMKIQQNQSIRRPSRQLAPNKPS

As to `CN1CCN(c2ccc(Nc3ccnc4ccc(-c5cccc(C#N)c5)cc34)cc2)CC1` [3-(4-(4-(4-methylpiperazin-1-yl)phenylamino)quinolin-6-yl)benzonitrile], the Activity result on AKT1 is “AKT1”; at NEK2 it was “NEK2”; on PRAK, “PRAK”; at AKT3, “AKT3”; on MAPKAPK2 it was “MAPKAPK2”.

As to `CN1CCN(c2ccc(Nc3ccnc4ccc(-c5ccc(C(N)=O)cc5)cc34)cc2)CC1` [4-(4-(4-(4-methylpiperazin-1-yl)phenylamino)quinolin-6-yl)benzamide], the Activity entry is reported as “ROCK2” at ROCK2; “NEK2” on NEK2; “DYRK2” on DYRK2; “PRAK” at PRAK; “MAPKAPK2” at MAPKAPK2.

In the case of `CN1CCN(c2ccc(Nc3ccnc4ccc(-c5ccc(F)c(Cl)c5)cc34)cc2)CC1` [6-(3-chloro-4-fluorophenyl)-N-(4-(4-methylpiperazin-1-yl)phenyl)quinolin-4-amine], the Activity result at NEK2 is on record as “NEK2”; at PRAK, “PRAK”; on C-TAK1 it was “C-TAK1”; on MSK1, “MSK1”; on MAPKAPK2, “MAPKAPK2”.

For the molecule `CN1CCN(c2ccc(Nc3ccnc4ccc(-c5ccoc5)cc34)cc2)CC1` [6-(furan-3-yl)-N-(4-(4-methylpiperazin-1-yl)phenyl)quinolin-4-amine], the Activity result at DYRK2 is “DYRK2”; on GSK-3-β it was “GSK-3-β”; at GSK3-α it was “GSK3-α”; on MAPKAPK2 it was “MAPKAPK2”.

Values taken from patent US7452887B2, “Quinoline- and isoquinoline-based compounds exhibiting ATP-utilizing enzyme inhibitory activity, and compositions, and uses thereof” (Amphora Discovery Corporation, priority 2004, dated 2008).
